The record followed here is PMC8468783, “New Flavone C-Glycosides from Scleranthus perennis and Their Anti-Collagenase Activity” (Molecules, 2021).

SMILES strings stand for the structures.

Usually IC50 stands for the concentration at which inhibition is half-maximal. As usually defined, the melting point is the temperature of the solid-liquid transition.

The target of series [1] is collagenase from Clostridium histolyticum. The series is described as follows: In vitro collagenase inhibition assay (spectrophotometric, FALGPA substrate). The format is biochemical. To be noted: mean ± SD, triplicate; 0.1 U/mL collagenase, 0.8 mM FALGPA, Tricine buffer pH 7.5, 37 °C, 20 min incubation, absorbance at 335 nm; read-out: Anti-collagenase activity IC50. How it is done:
The previous spectrophotometric procedure was modified and subsequently employed to determine the anti-collagenase activity of the isolated compounds [23]. This assay was performed in 50 mM Tricine buffer (pH = 7.5; 400 mM NaCl, 10 mM CaCl2). The mixed solution included 25 µL of 0.1 U/mL collagenase from Clostridium histolyticum, 25 µL Tricine buffer, and 25 µL of various levels of the sample were incubated at 37 °C for 20 min. After incubation, 75 µL of 0.8 mM FALGPA substrate was present. Then, absorbance was measured at 335 nm wavelength. Negative control was performed using Tricine buffer instead of sample and positive control was conducted with EGCG.
The percentage inhibition for assay was calculated by: Enzyme inhibition activity (%) = [1 − […]] × 100% where C is the negative control and S is the sample.

As to `CC(=O)Oc1ccc(-c2cc(=O)c3c(O)cc(O)c(C4OCC(O)C(O)C4OC4OC(CO)C(O)C(O)C4O)c3o2)cc1O` [Compound 1, 5,7,3′-trihydroxy-4′-acetoxyflavone-8-C-β-D-xylopyranoside-2′′-O-glucoside], the melting point lay within 188.5 to 189 °C. Besides, the half-maximal inhibitory concentration (IC50) in series [1] amounted to 70.2 ± 1.37 µM.
Take `COc1ccc(-c2cc(=O)c3c(O)cc(O)c(C4OCC(O)C(O)C4OC4OC(CO)C(O)C(O)C4O)c3o2)cc1O` [Compound 2, 5,7,3′-trihydroxy-4′-methoxyflavone-8-C-β-D-xylopyranoside-2′′-O-glucoside]: the melting point is 178.5 to 179.2 °C. Moreover, the IC50 in series [1] is 64.9 ± 1.08 µM.
Regarding `COc1cc(-c2cc(=O)c3c(O)cc(O)c(C4OCC(O)C(O)C4OC4OC(CO)C(O)C(O)C4O)c3o2)ccc1OC(C)=O` [Compound 3, 5,7-dihydroxy-3′-methoxy-4′-acetoxyflavone-8-C-β-D-xylopyranoside-2′′-O-glucoside], the IC50 in series [1] was determined as 48.3 ± 1.05 µM.
Compound `COc1cc(-c2cc(=O)c3c(O)cc(O)c(C4OCC(O)C(O)C4OC4OC(CO)C(OC(C)=O)C(O)C4O)c3o2)ccc1OC(C)=O` [Compound 4, 5,7-dihydroxy-3′-methoxy-4′-acetoxyflavone-8-C-β-D-xylopyranoside-2′′-O-(4′′′-acetoxy)-glucoside] had a melting point of 164.6 to 166.2 °C. Also, the IC50 in series [1] is 36.1 ± 0.78 µM.
With `COc1ccc(C(C)=O)c(O[C@@H]2O[C@H](CO[C@@H]3OC[C@](O)(CO)[C@H]3O)[C@@H](O)[C@H](O)[C@H]2O)c1` [Compound 5, apiopaenonside], in series [1], the IC50 was greater than 125 µM.
Take `O=C(O[C@@H]1Cc2c(O)cc(O)cc2O[C@@H]1c1cc(O)c(O)c(O)c1)c1cc(O)c(O)c(O)c1` [EGCG, Epigallocatechin gallate, reference compound]: in series [1], the IC50 came to 34.32 ± 0.21 µM.
